These results are taken from patent US12187728B2 (Raze Therapeutics, Inc., priority 2015, dated 2025).

pIC50: −log10 of the molar value. A value given as a limit tells only on which side of the number the result lay.

The assay has as its target T1, Human MTHFD2 (Homo sapiens, UniProt P13995).
T1 construct: residues 36-350 in Uniport ID P13995; His6 (N); made in house; host or cells: E. coli
T1 sequence (P13995 36-350): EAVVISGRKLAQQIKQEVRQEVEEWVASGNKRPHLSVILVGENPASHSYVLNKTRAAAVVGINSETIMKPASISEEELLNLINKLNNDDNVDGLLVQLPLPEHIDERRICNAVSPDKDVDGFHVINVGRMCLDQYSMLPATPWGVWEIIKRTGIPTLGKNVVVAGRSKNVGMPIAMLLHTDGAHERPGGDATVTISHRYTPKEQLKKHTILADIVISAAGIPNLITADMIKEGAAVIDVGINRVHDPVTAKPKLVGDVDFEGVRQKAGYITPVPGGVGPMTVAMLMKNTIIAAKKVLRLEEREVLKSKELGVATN
Description: MTHFD2 Activity Assay (dehydrogenase activity, diaphorase/resazurin coupled fluorescence). The format is biochemical. The settings on record: inhibitory activity (IC50 and/or binding constant); 0.2 nM MTHFD2, 11 concentrations. The method, boiled down:
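Resorufin fluorescence (ex 525, em 598 nm) reports NADH formed by the dehydrogenase via diaphorase coupling. Enzyme (0.2 nM, residues 36-350, N-His6) sat with compound 15 min before 70 μM CH2-THF and 1 mM NAD+ started a 30 min reaction. IC50s come from 4-parameter fits over 11 concentrations.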
Regarding `CCn1c(=O)n(Cc2ccc(Cl)c(Cl)c2)c(=O)c2c1ncn2C` [Example 250, 1-(3,4-dichlorobenzyl)-3-ethyl-7-methyl-1H-purine-2,6(3H,7H)-dione], the pIC50 (in general, the negative decadic logarithm of the IC50, by convention in mol/L) is 5.00 to 5.30.
In turn, `Cn1c(=O)n(Cc2ccc(Cl)c(Cl)c2)c(=O)c2[nH]cnc21` [Example 251, 1-(3,4-dichlorobenzyl)-3-methyl-1H-purine-2,6(3H,7H)-dione] gave a pIC50 of less than 5.00.
With `COCc1cc(Cn2c(=O)c3c(ncn3C)n(C)c2=O)ccc1Cl` [Example 252, 1-(4-chloro-3-(methoxymethyl)benzyl)-3,7-dimethyl-1H-purine-2,6(3H,7H)-dione] the figure was less than 5.00.
On to `Cn1cnc2c(=O)n(Cc3ccc(Cl)c(Cl)c3)c(=O)n(C)c21` [Example 253], for which the pIC50 is less than 5.00.
In turn, `Cn1c(NC2CCC(CO)C2)nc2c1c(=O)n(Cc1ccc(Cl)c(Cl)c1)c(=O)n2C` (centres unmarked) [Example 255, 1-(3,4-dichlorobenzyl)-8-(3-(hydroxymethyl)cyclopentylamino)-3,7-dimethyl-1H-purine-2,6(3H,7H)-dione] had a pIC50 of 6.00 to 8.00.
Then `Cn1cnc2c1c(=O)n(Cc1ccc(Cl)c(C#N)c1)c(=O)n2C` [Example 256, 2-chloro-5-((3,7-dimethyl-2,6-dioxo-2,3,6,7-tetrahydro-1H-purin-1-yl)methyl)benzonitrile], with 5.30 to 6.00.
Then `Cn1cnc2c1c(=O)n(Cc1cc3cc(C#N)ccc3[nH]1)c(=O)n2C` [Example 257, 2-((3,7-dimethyl-2,6-dioxo-2,3,6,7-tetrahydro-1H-purin-1-yl)methyl)-1H-indole-5-carbonitrile], with 5.30 to 6.00; and `CCOC(=O)[C@H]1C[C@@H](Nc2nc3c(c(=O)n(Cc4ccc(Cl)c(Cl)c4)c(=O)n3C)n2C)C1` [Example 258, (±)-(cis)-ethyl 3-(1-(3,4-dichlorobenzyl)-3,7-dimethyl-2,6-dioxo-2,3,6,7-tetrahydro-1H-purin-8-ylamino)cyclobutanecarboxylate], with 6.00 to 8.00.
For the molecule `Cn1c(N[C@H]2C[C@@H](C(=O)O)C2)nc2c1c(=O)n(Cc1ccc(Cl)c(Cl)c1)c(=O)n2C` [Example 259, (±)-(cis)-3-(1-(3,4-dichlorobenzyl)-3,7-dimethyl-2,6-dioxo-2,3,6,7-tetrahydro-1H-purin-8-ylamino)cyclobutanecarboxylic acid], the pIC50 is 6.00 to 8.00.
Take `Cn1c(NC2CCCC(C(=O)O)C2)nc2c1c(=O)n(Cc1ccc3cc[nH]c3c1)c(=O)n2C` (centres unmarked) [Example 260, 3-(1-((1H-indol-6-yl)methyl)-3,7-dimethyl-2,6-dioxo-2,3,6,7-tetrahydro-1H-purin-8-ylamino)cyclohexanecarboxylic acid]: the pIC50 is 6.00 to 8.00.
`Cn1c(N[C@H]2C[C@@H](CO)C2)nc2c1c(=O)n(Cc1ccc(Cl)c(Cl)c1)c(=O)n2C` [Example 261, (±)-1-(3,4-dichlorobenzyl)-8-((cis)-3-(hydroxymethyl)cyclobutylamino)-3,7-dimethyl-1H-purine-2,6(3H,7H)-dione] gave a pIC50 of 6.00 to 8.00.
The molecule `Cn1c(N[C@@H]2CC[C@@H](O)C2)nc2c(=O)n(Cc3ccc(Cl)c(Cl)c3)c(=O)n(C)c21` [Example 262, 1-(3,4-dichlorobenzyl)-8-((1R,3R)-3-hydroxycyclopentylamino)-3,9-dimethyl-1H-purine-2,6(3H,9H)-dione] gave a pIC50 of less than 5.00.
The molecule `Cn1cnc2c1c(=O)n(Cc1ccc3cc[nH]c3c1)c(=O)n2C` [Example 263, 1-((1H-indol-6-yl)methyl)-3,7-dimethyl-1H-purine-2,6(3H,7H)-dione] showed a pIC50 of 5.00 to 5.30.
`Cn1c(N[C@H]2CC[C@@H](C(=O)O)CC2)nc2c1c(=O)n(Cc1ccc(Cl)c(Cl)c1)c(=O)n2C` [Example 264, (±)-(cis)-4-((1-(3,4-dichlorobenzyl)-3,7-dimethyl-2,6-dioxo-2,3,6,7-tetrahydro-1H-purin-8-yl)amino)cyclohexanecarboxylic acid] gave a pIC50 of 6.00 to 8.00.
